Results taken from ChEMBL document CHEMBL5537118, “Synthesis of cinnamoyl tethered indoline derivatives with anti-inflammatory and antioxidant activities” (Eur J Med Chem, 2024).
pIC50: −log10 of the molar value. Activity calls are given as the source filed them. The rule behind the calls is not given here.

Legend:
[1] = Cytotoxicity against mouse RAW264.7 cells assessed as cell viability at 2 to 10 uM measured after 24 hrs; type: toxicity, cell-based; details: dose 2-10 µM, read-out: Activity
RAW264.7 [2] = test: Antiinflammatory activity in LPS-induced mouse RAW264.7 cells assessed as inhibition of NO production at 2 to 10 uM pretreated for 1 hr followed by LPS addition and measured after 24 hrs by griess reagent based assay; type: functional, cell-based; details: dose 2-10 µM, time 25.0 hrs
RAW264.7 [3] = test: Antiinflammatory activity in LPS-induced mouse RAW264.7 cells assessed as inhibition of NO production pretreated for 1 hr followed by LPS addition and measured after 24 hrs by griess reagent based assay; type: functional, cell-based
RAW264.7 [4] = test: Antioxidant activity in H2O2-stimulated mouse RAW264.7 cells assessed as protection against cell damage at 2 to 5 uM pretreated for 30 mins followed by H2O2 stimulation and measured after 4 hrs by MTT assay; type: functional, cell-based; details: dose 2-5 µM, time 4.5 hrs
Mus musculus [5] = test: Antiinflammatory activity in carrageenan-induced Kunming mouse model of paw edema assessed as paw volume at 30 mg/kg, ip pretreated for 1 hr followed by carrageenan administration and measured after 5 hrs by digital plethysmometer (reference value: 0.362 +/- 0.016 mL); type: functional; details: time 6 hrs
Mus musculus [6] = test: Antiinflammatory activity in carrageenan-induced Kunming mouse model of paw edema assessed as paw volume at 30 mg/kg, ip pretreated for 1 hr followed by carrageenan administration and measured immediately by digital plethysmometer (reference value: 0.116 +/- 0.042 mL); type: functional
Mus musculus [7] = test: Antiinflammatory activity in carrageenan-induced Kunming mouse model of paw edema assessed as paw volume at 30 mg/kg, IG pretreated for 1 hr followed by carrageenan administration and measured after 1 hr by digital plethysmometer (reference value: 0.407 +/- 0.023 mL); type: functional; details: time 2 hrs
Mus musculus [8] = test: Antiinflammatory activity in carrageenan-induced Kunming mouse model of paw edema assessed as edema inhibition at 30 mg/kg, ip pretreated for 1 hr followed by carrageenan administration and measured after 1 hr relative to control; type: functional; details: time 2 hrs
Mus musculus [9] = test: Antiinflammatory activity in carrageenan-induced Kunming mouse model of paw edema assessed as paw volume at 30 mg/kg, IG pretreated for 1 hr followed by carrageenan administration and measured immediately by digital plethysmometer (reference value: 0.144 +/- 0.026 mL); type: functional
Mus musculus [10] = test: Antiinflammatory activity in carrageenan-induced Kunming mouse model of paw edema assessed as paw volume at 30 mg/kg, ip pretreated for 1 hr followed by carrageenan administration and measured after 3 hrs by digital plethysmometer (reference value: 0.377 +/- 0.018 mL); type: functional; details: time 4 hrs
Mus musculus [11] = test: Antiinflammatory activity in carrageenan-induced Kunming mouse model of paw edema assessed as paw volume at 30 mg/kg, ip pretreated for 1 hr followed by carrageenan administration and measured after 1 hr by digital plethysmometer (reference value: 0.395 +/- 0.017 mL); type: functional; details: time 2 hrs
Mus musculus [12] = test: Antiinflammatory activity in carrageenan-induced Kunming mouse model of paw edema assessed as paw volume at 30 mg/kg, IG pretreated for 1 hr followed by carrageenan administration and measured after 3 hrs by digital plethysmometer (reference value: 0.365 +/- 0.044 mL); type: functional; details: time 4 hrs
Mus musculus [13] = test: Antiinflammatory activity in carrageenan-induced Kunming mouse model of paw edema assessed as paw volume at 30 mg/kg, IG pretreated for 1 hr followed by carrageenan administration and measured after 5 hrs by digital plethysmometer (reference value: 0.353 +/- 0.024 mL); type: functional; details: time 6 hrs
Mus musculus [14] = test: Antiinflammatory activity in carrageenan-induced Kunming mouse model of paw edema assessed as edema inhibition at 30 mg/kg, ip pretreated for 1 hr followed by carrageenan administration and measured after 5 hrs relative to control; type: functional; details: time 6 hrs
Mus musculus [15] = test: Antiinflammatory activity in carrageenan-induced Kunming mouse model of paw edema assessed as edema inhibition at 30 mg/kg, ip pretreated for 1 hr followed by carrageenan administration and measured after 3 hrs relative to control; type: functional; details: time 4 hrs
Mus musculus [16] = test: Antiinflammatory activity in carrageenan-induced Kunming mouse model of paw edema assessed as edema inhibition at 30 mg/kg, IG pretreated for 1 hr followed by carrageenan administration and measured after 1 hr relative to control; type: functional; details: po, time 2 hrs
Mus musculus [17] = test: Antiinflammatory activity in carrageenan-induced Kunming mouse model of paw edema assessed as edema inhibition at 30 mg/kg, IG pretreated for 1 hr followed by carrageenan administration and measured after 5 hrs relative to control; type: functional; details: po, time 6 hrs
Mus musculus [18] = test: Antiinflammatory activity in carrageenan-induced Kunming mouse model of paw edema assessed as edema inhibition at 30 mg/kg, IG pretreated for 1 hr followed by carrageenan administration and measured after 3 hrs relative to control; type: functional; details: po, time 4 hrs

Compound | viability at 24 h, 10 µM [1] [%] | Activity (RAW264.7 [2]) | Activity (RAW264.7 [4]) | other results
CC(C)(C)c1cc(/C=C/C(=O)NCCCN2CCc3cc(Cl)ccc32)cc(C(C)(C)C)c1O | > 85 |  |  | 
O=C(/C=C/c1ccc(O)cc1)NCCCN1CCc2cc(Cl)ccc21 | > 85 | Active | Active | pIC50 (RAW264.7 [3]): 5.39
COc1cc(/C=C/C(=O)NCCCN2CCc3ccccc32)cc(OC)c1OC | > 85 | Active | inactive | pIC50 (RAW264.7 [3]): 5.41
O=C(/C=C/c1ccc(O)c(O)c1)OCCc1ccccc1 [CAFFEIC ACID PHENETHYL ESTER] |  |  | Active | Activity (Mus musculus [5]): 0.196 mL; Activity (Mus musculus [6]): 0.128 mL; Activity (Mus musculus [7]): 0.342 mL; inhibition in vivo at 30 mg/kg (Mus musculus [8]): 38.6%; Activity (Mus musculus [9]): 0.125 mL; pIC50 (RAW264.7 [3]): 6.41; Activity (Mus musculus [10]): 0.243 mL; Activity (Mus musculus [11]): 0.29 mL; Activity (Mus musculus [12]): 0.294 mL; Activity (Mus musculus [13]): 0.257 mL; inhibition in vivo at 30 mg/kg (Mus musculus [14]): 69.5%; inhibition in vivo at 30 mg/kg (Mus musculus [15]): 54.9%; inhibition in vivo at 30 mg/kg (Mus musculus [16]): 23.5%; inhibition in vivo at 30 mg/kg (Mus musculus [17]): 44.2%; inhibition in vivo at 30 mg/kg (Mus musculus [18]): 29.1%
COc1ccc2c(c1)CCN2CCCNC(=O)/C=C/c1ccc(O)c(O)c1 | > 85 | Active | Active | pIC50 (RAW264.7 [3]): 5.68
O=C(/C=C/c1ccccc1)NCCCN1CCc2ccccc21 | > 85 |  |  | 
COc1cc(/C=C/C(=O)NCCCN2CCc3cc(Cl)ccc32)cc(OC)c1OC | > 85 | Active | inactive | pIC50 (RAW264.7 [3]): 5.45
COc1ccc2c(c1)CCN2CCCNC(=O)/C=C/c1cccc(O)c1 | > 85 | inactive |  | 
CC(C)(C)c1cc(/C=C/C(=O)NCCCN2CCc3ccccc32)cc(C(C)(C)C)c1O | > 85 |  |  | 
COc1cc(/C=C/C(=O)NCCCN2CCc3cc(Cl)ccc32)ccc1O | > 85 |  |  | pIC50 (RAW264.7 [3]): 5.30
COc1cc(/C=C/C(=O)NCCCN2CCc3cc(Cl)ccc32)cc(OC)c1O | > 85 |  |  | 
O=C(/C=C/c1cccc(O)c1)NCCCN1CCc2cc(Cl)ccc21 | > 85 | inactive |  | 
COc1ccc2c(c1)CCN2CCCNC(=O)/C=C/c1ccccc1 | > 85 |  |  | 
O=C(/C=C/c1ccccc1)NCCCN1CCc2cc(Cl)ccc21 | > 85 |  |  | 
COc1ccc2c(c1)CCN2CCCNC(=O)/C=C/c1ccc(O)cc1 | > 85 | Active | Active | 
O=C(/C=C/c1cccc(O)c1)NCCCN1CCc2ccccc21 | > 85 | inactive |  | 

Compound | viability at 24 h, 10 µM [1] [%] | Activity (RAW264.7 [2]) | Activity (RAW264.7 [4]) | other results
COc1ccc2c(c1)CCN2CCCNC(=O)/C=C/c1ccc(O)c(OC)c1 | > 85 |  |  | 
O=C(/C=C/c1ccc(O)c(Cl)c1)NCCCN1CCc2ccccc21 | > 85 | Active | Active | 
O=C(/C=C/c1ccc(O)c([N+](=O)[O-])c1)NCCCN1CCc2ccccc21 | > 85 |  |  | 
O=C(/C=C/c1ccc(O)c(Cl)c1)NCCCN1CCc2cc(Cl)ccc21 | > 85 | Active | Active | pIC50 (RAW264.7 [3]): 5.44
COc1cc(/C=C/C(=O)NCCCN2CCc3ccccc32)cc(OC)c1O | > 85 |  |  | 
CC(=O)Oc1ccc(/C=C/C(=O)NCCCN2CCc3cc(Cl)ccc32)cc1OC(C)=O |  |  |  | Activity (Mus musculus [5]): 0.209 mL; Activity (Mus musculus [6]): 0.142 mL; Activity (Mus musculus [7]): 0.325 mL; inhibition in vivo at 30 mg/kg (Mus musculus [8]): 24.3%; Activity (Mus musculus [9]): 0.136 mL; Activity (Mus musculus [10]): 0.24 mL; Activity (Mus musculus [11]): 0.329 mL; Activity (Mus musculus [12]): 0.258 mL; Activity (Mus musculus [13]): 0.21 mL; inhibition in vivo at 30 mg/kg (Mus musculus [14]): 64%; inhibition in vivo at 30 mg/kg (Mus musculus [15]): 56.1%; inhibition in vivo at 30 mg/kg (Mus musculus [16]): 29.6%; inhibition in vivo at 30 mg/kg (Mus musculus [17]): 65.9%; inhibition in vivo at 30 mg/kg (Mus musculus [18]): 43.9%
COc1ccc2c(c1)CCN2CCCNC(=O)/C=C/c1cc(OC)c(O)c(OC)c1 | > 85 |  |  | 
COc1ccc2c(c1)CCN2CCCNC(=O)/C=C/c1ccc(O)c(Cl)c1 | > 85 | Active | Active | 
COc1ccc2c(c1)CCN2CCCNC(=O)/C=C/c1cc(C(C)(C)C)c(O)c(C(C)(C)C)c1 | > 85 |  |  | 
COc1ccc2c(c1)CCN2CCCNC(=O)/C=C/c1cc(OC)c(OC)c(OC)c1 | > 85 | Active | inactive | pIC50 (RAW264.7 [3]): 5.35
COc1ccc2c(c1)CCN2CCCNC(=O)/C=C/c1ccc(O)c([N+](=O)[O-])c1 | > 85 |  |  | 
COc1cc(/C=C/C(=O)NCCCN2CCc3ccccc32)ccc1O | > 85 |  |  | 
O=C(/C=C/c1ccc(O)cc1)NCCCN1CCc2ccccc21 | > 85 | Active | Active | 
O=C(/C=C/c1ccc(O)c([N+](=O)[O-])c1)NCCCN1CCc2cc(Cl)ccc21 | > 85 |  |  | 
O=C(/C=C/c1ccc(O)c(O)c1)NCCCN1CCc2ccccc21 | > 85 | Active | Active | pIC50 (RAW264.7 [3]): 5.72
